Experimental data published in US20020115122A1, “Method and apparatus for automated assessment of the immunoregulatory status of the mononuclear leukocyte immune system” (priority 1998, published 2002).

Tests used:
[1] = system: peripheral blood mononuclear cells from normal donors; test: Antigenic determinant and IL-2 receptor expression on PHA stimulated mononuclear cells (flow cytofluorometry); type: cell-based, human; details: for IL2R+ percentage positive / Leu 2a+ percentage positive / Leu 3a+ percentage positive / Leu 4+ percentage positive: N = 9, ± standard error; for ratio of Activated Leu-3a+: Activated Leu-2a+ cells: at 18 hours in culture with PHA
Protocol: The sample of isolated cells is cultured with a standard stimulus for a period of time sufficient to allow a measurable amount of activation antigen expression, as influenced by mononuclear cell subclass interaction, to develop. In this particular embodiment, the isolated cells at a concentration of 1 million cells per milliliter are cultured with PHA at a concentration of 37.5 micrograms per milliliter, serving as a standard stimulus, for 18 hours. RPMI 1640 with fetal calf serum and glutamine serve as a culture media. The culture time is determined for each particular standard stimulus using samples from normal subjects, culturing portions of each sample for different lengths of time and determining the amount of activation antigen expression for each culture time. A measurable amount of IL-2 receptor expression is observed about 18 hours after initiating the culture with PHA. The 18 hour culture period facilitates the use of this invention as a clinical assay.
After culturing, the cells are washed to remove the standard stimulus and then aliquots of cells are simultaneously incubated with two monoclonal antibodies, each directly conjugated to different fluorometrically distinguishable fluorophores. The first fluorophore-conjugated monoclonal antibody binds to a select mononuclear cell subclass antigenic determinant and the second fluorometrically distinguishable fluorophore-conjugated monoclonal antibody binds to a select cell surface activation antigen. After incubation, the cells are washed to remove excess antibody and, in this particular embodiment, fixed with 1% paraformaldehyde to halt any further cellular activity.
This analysis is correlated with the stimulation index as measured by a 72 hour PHA culture with tritiated thymidine uptake. Peripheral blood mononuclear cells from normal donors were isolated by density gradient centrifugation, cultured with PHA, incubated with monoclonal antibodies to select mononuclear cell subclass antigenic determinants and to IL-2 receptors and four parameter data generated and analyzed similar as described in “Detailed Description”. Monoclonal antibodies used included FITC-conjugated antibody for the antigenic determinants Leu-4, Leu-3a or Leu-2a, and PE-conjugated monoclonal antibody for IL-2 receptor. Four parameter data was collected on cells using an EPICS-V flow cytofluorometer (Coulter Corporation, Hialeah, Fla.) configured as described in “Detailed Description” with the following modification: the argon laser was used at 500 milliwatts. Forward and orthogonal light scatter parameters were analyzed to determine if the cell was within an area of interest which substantially included lymphocytes, lymphoblasts and monocytes. Green and red fluorescence data analysis was performed for such cells. The percentage of antigenic determinant and/or IL-2 receptor positive mononuclear cells, i.e., Leu-4+, Leu-3a+, Leu-2a+, IL2R+, leu-4+IL2R+, Leu-3a+IL2R+and Leu-2a+IL2R+, was determined as per the methods described herein. The results were not corrected for non-specific binding.
First, mononuclear cell subclass antigenic determinant and activation antigen analysis of PHA stimulated mononuclear cells was conducted using aliquots incubated with only one monoclonal antibody.
Analysis of the PEA stimulated mononuclear cells was conducted using aliquots incubated with a FITC-conjugated monoclonal antibody to detect antigenic determinants and anti-IL2R-PE.

[2] = system: peripheral blood mononuclear cells from normal donors; test: Stimulation index by tritiated thymidine uptake in PHA culture; type: cell-based, human; details: 72 hours in culture with PHA
Protocol: This analysis is correlated with the stimulation index as measured by a 72 hour PHA culture with tritiated thymidine uptake. Peripheral blood mononuclear cells from normal donors were isolated by density gradient centrifugation, cultured with PHA, incubated with monoclonal antibodies to select mononuclear cell subclass antigenic determinants and to IL-2 receptors and four parameter data generated and analyzed similar as described in “Detailed Description”. Monoclonal antibodies used included FITC-conjugated antibody for the antigenic determinants Leu-4, Leu-3a or Leu-2a, and PE-conjugated monoclonal antibody for IL-2 receptor. Four parameter data was collected on cells using an EPICS-V flow cytofluorometer (Coulter Corporation, Hialeah, Fla.) configured as described in “Detailed Description” with the following modification: the argon laser was used at 500 milliwatts. Forward and orthogonal light scatter parameters were analyzed to determine if the cell was within an area of interest which substantially included lymphocytes, lymphoblasts and monocytes. Green and red fluorescence data analysis was performed for such cells. The percentage of antigenic determinant and/or IL-2 receptor positive mononuclear cells, i.e., Leu-4+, Leu-3a+, Leu-2a+, IL2R+, leu-4+IL2R+, Leu-3a+IL2R+and Leu-2a+IL2R+, was determined as per the methods described herein. […]

[3] = 18 hours in culture with PHA, normal donors
[4] = 24 hours in culture with PHA, normal donors
[5] = 48 hours in culture with PHA, normal donors
[6] = Subject D, 18 hours in culture with PHA
[7] = Subject D, 24 hours in culture with PHA
[8] = Subject D, 48 hours in culture with PHA
[9] = Subject N, 18 hours in culture with PHA
[10] = Subject N, 48 hours in culture with PHA

phytohemagglutinin [PHA]
IL2R+ percentage positive ([1]; 18 hours in culture with PHA): 61 ± 1.9 percentage
Leu 2a+ percentage positive ([1]; 18 hours in culture with PHA): 18 ± 1.0 percentage
Leu 3a+ percentage positive ([1]; 18 hours in culture with PHA): 54 ± 1.7 percentage
Leu 4+ percentage positive ([1]; 18 hours in culture with PHA): 79 ± 2.4 percentage
Activated Leu-2a+ [1, 3]: 25 ± 6.4 Percentage
Activated Leu-3a+ [1, 3]: 49 ± 8.9 Percentage
Activated Leu-4+ [1, 3]: 49 ± 6.1 Percentage
IL2R+ percentage positive ([1]; 24 hours in culture with PHA): 71 ± 1.9 percentage
Leu 2a+ percentage positive ([1]; 24 hours in culture with PHA): 18 ± 0.7 percentage
Leu 3a+ percentage positive ([1]; 24 hours in culture with PHA): 54 ± 1.3 percentage
Leu 4+ percentage positive ([1]; 24 hours in culture with PHA): 77 ± 1.9 percentage
Activated Leu-2a+ [1, 4]: 32 ± 4.5 Percentage
Activated Leu-3a+ [1, 4]: 62 ± 8.5 Percentage
Activated Leu-4+ [1, 4]: 62 ± 3.7 Percentage
IL2R+ percentage positive ([1]; 48 hours in culture with PHA): 80 ± 1.5 percentage
Leu 2a+ percentage positive ([1]; 48 hours in culture with PHA): 19 ± 2.0 percentage
Leu 3a+ percentage positive ([1]; 48 hours in culture with PHA): 53 ± 2.8 percentage
Leu 4+ percentage positive ([1]; 48 hours in culture with PHA): 81 ± 2.2 percentage
Activated Leu-2a+ [1, 5]: 55 ± 8.0 Percentage
Activated Leu-3a+ [1, 5]: 70 ± 9.5 Percentage
Activated Leu-4+ [1, 5]: 72 ± 5.5 Percentage
time after initiating the culture at which a measurable amount of IL-2 receptor expression is observed ([1]; PHA 37.5 micrograms per milliliter, 1 million cells per milliliter): about 18 hours
Activated Leu-2a+ [1, 6]: 32 Percentage
Activated Leu-3a+ [1, 6]: 74 Percentage
Activated Leu-4+ [1, 6]: 68 Percentage
Activated Leu-2a+ [1, 7]: 32 Percentage
Activated Leu-3a+ [1, 7]: 79 Percentage
Activated Leu-4+ [1, 7]: 75 Percentage
Activated Leu-2a+ [1, 8]: 76 Percentage
Activated Leu-3a+ [1, 8]: 92 Percentage
Activated Leu-4+ [1, 8]: 84 Percentage
ratio of Activated Leu-3a+: Activated Leu-2a+ cells ([1]; Subject D): 2.31
Activated Leu-2a+ [1, 9]: 30 Percentage
Activated Leu-3a+ [1, 9]: 31 Percentage
Activated Leu-4+ [1, 9]: 32 Percentage
Activated Leu-4+ ([1]; Subject N, 24 hours in culture with PHA): 59 Percentage
Activated Leu-2a+ [1, 10]: 71 Percentage
Activated Leu-3a+ [1, 10]: 44 Percentage
ratio of Activated Leu-3a+: Activated Leu-2a+ cells ([1]; Subject N): 1.03
ratio of Activated Leu-3a+: Activated Leu-2a+ cells ([1]; Subject N, listed as PRA): approximately 1.0
subclass preference of activation ([1]; mononuclear cells which are Leu-3a+ versus Leu-2a+): preferentially activates helper/inducer T-cells
SI at 72 ([2]; Subject D): 535
SI at 72 ([2]; Subject N): 8
